Assays:
FGFR4(V550L) = FGFR4(V550L) (Homo sapiens (Human), UniProt P22455, V550L); experiment: Carna kinome panel; assay type: biochemical; details: read-out: % Inhibition at 10 μM of the test compound
ROS = ROS (Homo sapiens (Human), UniProt P08922); experiment: Carna kinome panel; assay type: biochemical; details: read-out: % Inhibition at 10 μM of the test compound
CaMK2γ = CaMK2γ (Homo sapiens (Human), UniProt Q13555); experiment: Carna kinome panel; assay type: biochemical; details: read-out: % Inhibition at 10 μM of the test compound
PAK6 = PAK6 (Homo sapiens (Human), UniProt Q9NQU5); experiment: Carna kinome panel; assay type: biochemical; details: read-out: % Inhibition at 10 μM of the test compound
MLK1_Cascade = MLK1_Cascade (Homo sapiens (Human), UniProt P80192); experiment: Carna kinome panel; assay type: biochemical; details: read-out: % Inhibition at 10 μM of the test compound
PGK = PGK (Homo sapiens (Human), UniProt Q13976); experiment: Carna kinome panel; assay type: biochemical; details: read-out: % Inhibition at 10 μM of the test compound
EGFR(T790M/L858R) = EGFR(T790M/L858R) (Homo sapiens (Human), UniProt P00533, L858R/T790M); experiment: Carna kinome panel; assay type: biochemical; details: read-out: % Inhibition at 10 μM of the test compound
TXK = TXK (Homo sapiens (Human), UniProt P42681); experiment: Carna kinome panel; assay type: biochemical; details: read-out: % Inhibition at 10 μM of the test compound
NEK1 = NEK1 (Homo sapiens (Human), UniProt Q96PY6); experiment: Carna kinome panel; assay type: biochemical; details: read-out: % Inhibition at 10 μM of the test compound
PHKG2 = PHKG2 (Homo sapiens (Human), UniProt P15735); experiment: Carna kinome panel; assay type: biochemical; details: read-out: % Inhibition at 10 μM of the test compound
ALK(F1174L) = ALK(F1174L) (Homo sapiens (Human), UniProt Q9UM73, F1174L); experiment: Carna kinome panel; assay type: biochemical; details: read-out: % Inhibition at 10 μM of the test compound
ARG = ARG (Homo sapiens (Human), UniProt P42684); experiment: Carna kinome panel; assay type: biochemical; details: read-out: % Inhibition at 10 μM of the test compound
PDGFRα(D842V) = PDGFRα(D842V) (Homo sapiens (Human), UniProt P16234, D842V); experiment: Carna kinome panel; assay type: biochemical; details: read-out: % Inhibition at 10 μM of the test compound
LATS2 = LATS2 (Homo sapiens (Human), UniProt Q9NRM7); experiment: Carna kinome panel; assay type: biochemical; details: read-out: % Inhibition at 10 μM of the test compound
SGK = SGK (Homo sapiens (Human), UniProt O00141); experiment: Carna kinome panel; assay type: biochemical; details: read-out: % Inhibition at 10 μM of the test compound
ROCK2 = ROCK2 (Homo sapiens (Human), UniProt O75116); experiment: Carna kinome panel; assay type: biochemical; details: read-out: % Inhibition at 10 μM of the test compound
MAPKAPK2 = MAPKAPK2 (Homo sapiens (Human), UniProt P49137); experiment: Carna kinome panel; assay type: biochemical; details: read-out: % Inhibition at 10 μM of the test compound
PIM2 = PIM2 (Homo sapiens (Human), UniProt Q9P1W9); experiment: Carna kinome panel; assay type: biochemical; details: read-out: % Inhibition at 10 μM of the test compound
TAK1-TAB1_Cascade = TAK1-TAB1_Cascade (Homo sapiens (Human), UniProt O43318); experiment: Carna kinome panel; assay type: biochemical; details: read-out: % Inhibition at 10 μM of the test compound
PDGFRα = PDGFRα (Homo sapiens (Human), UniProt P16234); experiment: Carna kinome panel; assay type: biochemical; details: read-out: % Inhibition at 10 μM of the test compound
FAK = FAK (Homo sapiens (Human), UniProt Q05397); experiment: Carna kinome panel; assay type: biochemical; details: read-out: % Inhibition at 10 μM of the test compound
TIE2 = TIE2 (Homo sapiens (Human), UniProt Q02763); experiment: Carna kinome panel; assay type: biochemical; details: read-out: % Inhibition at 10 μM of the test compound
MAPKAPK3 = MAPKAPK3 (Homo sapiens (Human), UniProt Q16644); experiment: Carna kinome panel; assay type: biochemical; details: read-out: % Inhibition at 10 μM of the test compound
TSSK1 = TSSK1 (Homo sapiens (Human), UniProt Q9BXA7); experiment: Carna kinome panel; assay type: biochemical; details: read-out: % Inhibition at 10 μM of the test compound
PKACβ = PKACβ (Homo sapiens (Human), UniProt P22694); experiment: Carna kinome panel; assay type: biochemical; details: read-out: % Inhibition at 10 μM of the test compound
WNK2 = WNK2 (Homo sapiens (Human), UniProt Q9Y3S1); experiment: Carna kinome panel; assay type: biochemical; details: read-out: % Inhibition at 10 μM of the test compound
GSK3α = GSK3α (Homo sapiens (Human), UniProt P49840); experiment: biochemical
Protocol: A selection of compounds was screened against a selected panel of kinases based on single point inhibitory ability to determine absolute inhibitory activity, leading to selectivity measurements. The assay utilized was identical to that of the single point inhibitory activity determination (MSA) but run in dose response. A solution of 4× inhibitor (5 μL), 4× substrate/ATP Metal solution (5 μL), and 2× Kinase solution (10 μL) was prepared with assay buffer (20 mM HEPES, 0.01% Triton X-100, 2 mM DTT, pH 7.5) and mixed/incubated in 384 well plates for 1 or 5 hours depending on the kinase, at room temperature. A solution of termination buffer (QuickScout Screening assist MSA; Carna Biosciences) (60 μL) was added to each well. The entire reaction mixture was then applied to a LabChip3000 system (Caliper Life Science) and the product and substrate peptide peaks were separated and quantified.
Briefly, a selection of compounds was screened against a panel of kinases at a single concentration of 10 μM. […] The entire reaction mixture was then applied to a LabChip3000 system (Caliper Life Science), and the product and substrate peptide peaks were separated and quantified. […] The entire reaction mixture was then applied to a LabChip3000 system (Caliper Life Science), and the product and substrate peptide peaks were separated and quantified.

CLK1 = CLK1 (Homo sapiens (Human), UniProt P49759); experiment: Carna kinome panel; assay type: biochemical; details: read-out: % Inhibition at 10 μM of the test compound
FGFR2 = FGFR2 (Homo sapiens (Human), UniProt P21802); experiment: Carna kinome panel; assay type: biochemical; details: read-out: % Inhibition at 10 μM of the test compound
PKD1 = PKD1 (Homo sapiens (Human), UniProt Q15139); experiment: Carna kinome panel; assay type: biochemical; details: read-out: % Inhibition at 10 μM of the test compound
FGFR1(V561M) = FGFR1(V561M) (Homo sapiens (Human), UniProt P11362, V561M); experiment: Carna kinome panel; assay type: biochemical; details: read-out: % Inhibition at 10 μM of the test compound
MNK1 = MNK1 (Homo sapiens (Human), UniProt Q9BUB5); experiment: Carna kinome panel; assay type: biochemical; details: read-out: % Inhibition at 10 μM of the test compound
MGC42105 = MGC42105 (Homo sapiens (Human), UniProt Q8IY84); experiment: Carna kinome panel; assay type: biochemical; details: read-out: % Inhibition at 10 μM of the test compound
PKR = PKR (Homo sapiens (Human), UniProt P19525); experiment: Carna kinome panel; assay type: biochemical; details: read-out: % Inhibition at 10 μM of the test compound
CaMK2α = CaMK2α (Homo sapiens (Human), UniProt Q9UQM7); experiment: Carna kinome panel; assay type: biochemical; details: read-out: % Inhibition at 10 μM of the test compound
ALK(C1156Y) = ALK(C1156Y) (Homo sapiens (Human), UniProt Q9UM73, C1156Y); experiment: Carna kinome panel; assay type: biochemical; details: read-out: % Inhibition at 10 μM of the test compound
BTK = BTK (Homo sapiens (Human), UniProt Q06187); experiment: Carna kinome panel; assay type: biochemical; details: read-out: % Inhibition at 10 μM of the test compound
ALK(R1275Q) = ALK(R1275Q) (Homo sapiens (Human), UniProt Q9UM73, R1275Q); experiment: Carna kinome panel; assay type: biochemical; details: read-out: % Inhibition at 10 μM of the test compound
FGFR3(K650E) = FGFR3(K650E) (Homo sapiens (Human), UniProt P22607, K650E); experiment: Carna kinome panel; assay type: biochemical; details: read-out: % Inhibition at 10 μM of the test compound

Sequence of GSK3α (P49840 whole entry): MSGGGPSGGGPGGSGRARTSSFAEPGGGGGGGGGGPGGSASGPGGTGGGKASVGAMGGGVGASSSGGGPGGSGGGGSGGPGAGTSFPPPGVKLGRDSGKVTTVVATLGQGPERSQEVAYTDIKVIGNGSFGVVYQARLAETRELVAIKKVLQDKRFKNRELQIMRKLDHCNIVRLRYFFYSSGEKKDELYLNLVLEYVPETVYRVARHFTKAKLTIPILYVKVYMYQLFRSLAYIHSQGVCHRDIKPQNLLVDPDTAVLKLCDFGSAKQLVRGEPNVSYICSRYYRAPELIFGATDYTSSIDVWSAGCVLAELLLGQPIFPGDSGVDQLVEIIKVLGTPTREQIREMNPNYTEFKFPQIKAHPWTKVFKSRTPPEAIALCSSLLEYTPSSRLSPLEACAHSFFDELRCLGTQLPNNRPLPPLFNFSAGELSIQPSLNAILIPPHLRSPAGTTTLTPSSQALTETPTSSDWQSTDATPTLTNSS
Sequence of MAPKAPK3 (Q16644 whole entry): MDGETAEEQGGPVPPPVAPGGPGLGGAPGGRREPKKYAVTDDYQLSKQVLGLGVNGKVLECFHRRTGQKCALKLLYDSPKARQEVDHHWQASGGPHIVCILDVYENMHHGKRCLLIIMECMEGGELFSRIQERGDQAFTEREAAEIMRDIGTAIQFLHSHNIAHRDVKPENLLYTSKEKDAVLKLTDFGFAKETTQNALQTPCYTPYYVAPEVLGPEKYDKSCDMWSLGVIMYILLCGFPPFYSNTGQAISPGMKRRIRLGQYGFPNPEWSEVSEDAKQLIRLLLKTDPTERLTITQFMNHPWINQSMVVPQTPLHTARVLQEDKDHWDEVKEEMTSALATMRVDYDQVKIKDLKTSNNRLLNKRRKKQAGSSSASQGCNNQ
Sequence of FGFR4(V550L) (P22455 22-802 V550L): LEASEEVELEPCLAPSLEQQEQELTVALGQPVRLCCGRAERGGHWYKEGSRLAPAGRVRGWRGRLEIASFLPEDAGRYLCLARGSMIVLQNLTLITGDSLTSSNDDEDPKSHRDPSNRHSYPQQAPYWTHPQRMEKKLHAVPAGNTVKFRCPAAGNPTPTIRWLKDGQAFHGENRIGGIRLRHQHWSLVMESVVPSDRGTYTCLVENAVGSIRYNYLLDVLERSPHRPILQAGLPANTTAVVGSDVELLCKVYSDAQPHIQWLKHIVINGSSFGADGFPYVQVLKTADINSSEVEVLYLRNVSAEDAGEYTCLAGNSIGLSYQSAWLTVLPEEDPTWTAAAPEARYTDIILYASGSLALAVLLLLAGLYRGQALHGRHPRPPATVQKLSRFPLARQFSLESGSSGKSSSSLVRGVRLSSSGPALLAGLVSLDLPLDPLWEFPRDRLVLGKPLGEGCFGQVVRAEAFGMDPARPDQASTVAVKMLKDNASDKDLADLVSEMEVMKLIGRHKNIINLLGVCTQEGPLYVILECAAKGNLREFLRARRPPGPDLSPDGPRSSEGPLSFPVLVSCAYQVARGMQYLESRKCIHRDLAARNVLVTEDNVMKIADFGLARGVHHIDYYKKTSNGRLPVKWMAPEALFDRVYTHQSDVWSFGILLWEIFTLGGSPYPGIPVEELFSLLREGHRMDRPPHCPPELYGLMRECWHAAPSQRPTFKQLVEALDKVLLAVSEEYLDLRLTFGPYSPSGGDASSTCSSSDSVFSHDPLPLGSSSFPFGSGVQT
Sequence of ALK(F1174L) (Q9UM73 19-1620 F1174L): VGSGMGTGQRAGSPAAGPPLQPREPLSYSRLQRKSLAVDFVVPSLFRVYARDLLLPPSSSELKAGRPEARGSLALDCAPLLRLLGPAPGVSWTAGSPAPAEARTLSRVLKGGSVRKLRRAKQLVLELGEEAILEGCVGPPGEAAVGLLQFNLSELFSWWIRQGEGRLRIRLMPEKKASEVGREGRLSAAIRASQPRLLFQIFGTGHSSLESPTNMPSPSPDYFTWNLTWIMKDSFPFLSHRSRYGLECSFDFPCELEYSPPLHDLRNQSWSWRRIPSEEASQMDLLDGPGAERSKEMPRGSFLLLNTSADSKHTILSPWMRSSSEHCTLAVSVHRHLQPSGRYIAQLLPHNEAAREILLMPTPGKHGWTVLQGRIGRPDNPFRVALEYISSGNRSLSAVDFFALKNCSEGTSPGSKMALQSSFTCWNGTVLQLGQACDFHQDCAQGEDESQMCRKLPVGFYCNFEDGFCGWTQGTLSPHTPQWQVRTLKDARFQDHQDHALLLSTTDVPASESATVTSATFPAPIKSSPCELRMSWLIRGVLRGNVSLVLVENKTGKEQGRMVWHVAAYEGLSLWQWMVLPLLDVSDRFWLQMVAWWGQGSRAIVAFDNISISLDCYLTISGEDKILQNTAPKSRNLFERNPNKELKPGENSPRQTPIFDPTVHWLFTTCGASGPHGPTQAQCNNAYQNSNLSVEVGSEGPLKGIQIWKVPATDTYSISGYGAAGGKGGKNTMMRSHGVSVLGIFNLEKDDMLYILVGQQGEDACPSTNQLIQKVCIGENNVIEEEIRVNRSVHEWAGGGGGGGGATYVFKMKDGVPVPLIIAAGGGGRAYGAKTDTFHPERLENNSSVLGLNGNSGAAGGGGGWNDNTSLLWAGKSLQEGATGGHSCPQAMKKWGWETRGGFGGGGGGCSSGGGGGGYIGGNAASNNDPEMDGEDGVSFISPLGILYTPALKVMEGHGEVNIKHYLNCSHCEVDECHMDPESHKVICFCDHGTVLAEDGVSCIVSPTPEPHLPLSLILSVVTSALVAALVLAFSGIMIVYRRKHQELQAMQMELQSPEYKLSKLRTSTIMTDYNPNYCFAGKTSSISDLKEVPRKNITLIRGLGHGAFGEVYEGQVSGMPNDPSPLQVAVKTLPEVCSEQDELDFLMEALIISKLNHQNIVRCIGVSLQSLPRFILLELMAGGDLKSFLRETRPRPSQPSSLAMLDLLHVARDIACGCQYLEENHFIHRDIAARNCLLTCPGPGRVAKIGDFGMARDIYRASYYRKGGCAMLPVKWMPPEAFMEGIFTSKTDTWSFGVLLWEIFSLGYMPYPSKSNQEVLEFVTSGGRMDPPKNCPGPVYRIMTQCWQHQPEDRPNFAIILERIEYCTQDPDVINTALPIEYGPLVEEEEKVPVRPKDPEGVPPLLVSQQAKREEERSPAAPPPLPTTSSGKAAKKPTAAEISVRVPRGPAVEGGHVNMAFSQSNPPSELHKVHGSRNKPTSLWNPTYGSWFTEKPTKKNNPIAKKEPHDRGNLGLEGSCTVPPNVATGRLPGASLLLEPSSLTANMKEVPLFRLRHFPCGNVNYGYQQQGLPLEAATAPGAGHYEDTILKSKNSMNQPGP
Sequence of PDGFRα(D842V) (P16234 24-1089 D842V): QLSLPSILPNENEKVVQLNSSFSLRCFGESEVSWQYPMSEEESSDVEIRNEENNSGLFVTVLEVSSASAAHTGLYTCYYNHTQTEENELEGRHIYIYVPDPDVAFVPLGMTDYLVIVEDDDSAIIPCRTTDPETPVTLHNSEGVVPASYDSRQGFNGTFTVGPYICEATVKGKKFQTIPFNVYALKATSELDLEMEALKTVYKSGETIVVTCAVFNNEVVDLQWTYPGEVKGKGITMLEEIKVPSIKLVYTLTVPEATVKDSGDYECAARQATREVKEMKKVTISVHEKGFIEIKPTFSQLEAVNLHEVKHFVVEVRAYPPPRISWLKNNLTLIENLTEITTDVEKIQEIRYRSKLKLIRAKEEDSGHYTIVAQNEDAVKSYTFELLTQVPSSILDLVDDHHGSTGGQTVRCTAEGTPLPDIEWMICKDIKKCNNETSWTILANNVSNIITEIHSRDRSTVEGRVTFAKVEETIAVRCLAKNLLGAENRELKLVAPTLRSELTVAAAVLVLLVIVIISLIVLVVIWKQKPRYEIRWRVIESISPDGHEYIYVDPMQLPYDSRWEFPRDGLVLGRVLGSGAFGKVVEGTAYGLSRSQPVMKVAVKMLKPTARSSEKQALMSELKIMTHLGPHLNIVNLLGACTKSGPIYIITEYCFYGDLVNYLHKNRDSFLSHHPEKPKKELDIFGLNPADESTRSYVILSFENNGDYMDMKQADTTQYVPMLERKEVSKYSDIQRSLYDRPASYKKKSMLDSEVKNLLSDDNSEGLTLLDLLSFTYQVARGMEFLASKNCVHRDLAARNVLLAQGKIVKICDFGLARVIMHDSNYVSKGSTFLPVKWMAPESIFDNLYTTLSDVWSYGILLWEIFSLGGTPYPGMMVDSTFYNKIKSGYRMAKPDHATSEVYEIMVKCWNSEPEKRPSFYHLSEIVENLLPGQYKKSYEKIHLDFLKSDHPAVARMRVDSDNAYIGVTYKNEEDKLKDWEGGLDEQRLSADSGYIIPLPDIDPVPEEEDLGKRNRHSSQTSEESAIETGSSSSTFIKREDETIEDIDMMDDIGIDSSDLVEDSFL
Sequence of PHKG2 (P15735 whole entry): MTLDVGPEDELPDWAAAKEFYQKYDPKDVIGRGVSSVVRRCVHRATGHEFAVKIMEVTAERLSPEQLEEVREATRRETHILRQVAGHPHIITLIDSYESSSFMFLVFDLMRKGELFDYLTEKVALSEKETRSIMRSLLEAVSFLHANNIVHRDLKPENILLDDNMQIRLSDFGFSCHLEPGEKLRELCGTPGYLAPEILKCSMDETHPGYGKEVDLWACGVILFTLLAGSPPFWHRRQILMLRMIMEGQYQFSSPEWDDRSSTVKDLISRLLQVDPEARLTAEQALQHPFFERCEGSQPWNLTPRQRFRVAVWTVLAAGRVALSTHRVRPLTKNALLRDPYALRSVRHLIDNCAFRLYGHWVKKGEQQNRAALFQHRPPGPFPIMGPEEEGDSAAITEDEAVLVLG
Sequence of PDGFRα (P16234 24-1089): as the sequence (P16234 24-1089 D842V) above, with V819D counted along it
Sequence of PIM2 (Q9P1W9 whole entry): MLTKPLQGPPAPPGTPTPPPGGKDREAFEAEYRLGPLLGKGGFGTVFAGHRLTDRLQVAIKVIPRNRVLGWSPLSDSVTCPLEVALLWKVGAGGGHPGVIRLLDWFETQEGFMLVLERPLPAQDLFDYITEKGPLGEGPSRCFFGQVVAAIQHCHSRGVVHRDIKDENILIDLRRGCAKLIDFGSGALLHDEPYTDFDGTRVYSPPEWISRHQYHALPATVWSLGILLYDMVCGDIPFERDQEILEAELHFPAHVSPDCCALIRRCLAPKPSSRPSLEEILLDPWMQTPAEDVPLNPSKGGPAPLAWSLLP

CCC1(c2ccccc2)C2=C(CC(C)(C)CC2=O)Nc2ncsc21 (stereo not shown) [Compound 1, 9-Ethyl-6,6-dimethyl-9-phenyl-5,6,7,9-tetrahydrothiazolo[4,5-b]quinolin-8(4H)-one]
inhibition at 10 µM (FGFR4(V550L)): 3.3% | inhibition at 10 µM (ROS): -0.2% | inhibition at 10 µM (CaMK2γ): -5.2% | inhibition at 10 µM (PAK6): 3.9% | inhibition at 10 µM (MLK1_Cascade): 7.5% | inhibition at 10 µM (PGK): 0.9% | inhibition at 10 µM (EGFR(T790M/L858R)): -15.5% | inhibition at 10 µM (TXK): -1.3% | inhibition at 10 µM (NEK1): 7.5% | inhibition at 10 µM (PHKG2): -5% | inhibition at 10 µM (ALK(F1174L)): 1.8% | inhibition at 10 µM (ARG): -0.6% | inhibition at 10 µM (PDGFRα(D842V)): -3.4% | inhibition at 10 µM (LATS2): 5.4% | inhibition at 10 µM (SGK): -1.7% | inhibition at 10 µM (ROCK2): -3.1% | inhibition at 10 µM (MAPKAPK2): -13.4% | inhibition at 10 µM (PIM2): 0.3% | inhibition at 10 µM (TAK1-TAB1_Cascade): 8% | inhibition at 10 µM (PDGFRα): -10.1% | inhibition at 10 µM (FAK): -2% | inhibition at 10 µM (TIE2): 11.1% | inhibition at 10 µM (MAPKAPK3): -15.5% | inhibition at 10 µM (TSSK1): -5% | inhibition at 10 µM (PKACβ): -0.8% | inhibition at 10 µM (WNK2): 0.5% | IC50 (GSK3α): 31.3 nM | inhibition at 10 µM (GSK3α; read-out: % Inhibition at 10 μM of the test compound): 98% | inhibition at 10 µM (CLK1): -7.2% | inhibition at 10 µM (FGFR2): 1.4% | inhibition at 10 µM (PKD1): 1% | inhibition at 10 µM (FGFR1(V561M)): 2.6% | inhibition at 10 µM (MNK1): -3.4% | inhibition at 10 µM (MGC42105): 4.3% | inhibition at 10 µM (PKR): -8.9% | inhibition at 10 µM (CaMK2α): -1.6% | inhibition at 10 µM (ALK(C1156Y)): -3.7% | inhibition at 10 µM (BTK): -1.6% | inhibition at 10 µM (ALK(R1275Q)): -8% | inhibition at 10 µM (FGFR3(K650E)): -3%
